According to patent US20250319189A1, “GANCICLOVIR COMPOSITIONS AND RELATED METHODS” (Exela Pharma Sciences, LLC, priority 2013, published 2025):
Where two headings read alike, the source gives them in different places.

How the values were obtained:
[1] = Stability of aqueous formulation on shelf storage / accelerated storage; assay type: physicochemical
[2] = cited from earlier work
[3] = Particulate matter in aqueous solution (USP requirements); assay type: physicochemical; details: aqueous solution of ganciclovir base at about or below about 3 mg/ml
Text: As used herein, the term “particulate-matter-free” or its grammatical equivalents such as “particle free” refer to the state in which the composition of the present invention meets the USP requirements for particulate matter in parenteral solutions. See for example, USP XXXII, Chapter 788. One of skill in the art understands and knows how to assess whether a given composition meets USP particulate matter requirements.

[4] = cited from earlier work; remark: listed apart in the source

Row | retained initial concentration of ganciclovir ([1]; aqueous solution at about or below about 3 mg/ml, accelerated storage or stability testing conditions) | stability for extended shelf-storage ([1]; aqueous solution of ganciclovir base at concentrations of about or below about 3 mg/ml) | Structure (SMILES) | solubility in water [2] | particulate matter [3] | stability in an aqueous formulation (prolonged shelf-storage) [4] | solubility in water ([2]; listed as Ganciclovir sodium salt)
1 | at least 95% | stable for extended shelf-storage | Nc1nc2c(ncn2COC(CO)CO)c(=O)[nH]1 [ganciclovir base, 9-(1,3-dihydroxy-2-propoxymethyl)guanine] | limited solubility in water | free or substantially free of particulate matter |  | 
2 |  |  | Nc1nc(O)c2ncn(COC(CO)CO)c2n1 [ganciclovir sodium] |  |  | not sufficiently stable | very soluble in water
